Data reported in patent US20050118596A1, “Method for screening for compounds having hdac inhibitory activity” (priority 2002, published 2005).
Read-outs that look alike come from different tables or passages of the source. One block for each compound: values may come before it. Where a SMILES comes first, the peptide text is derived from it. [ ]: non-standard residue; d: D form. ξ: configuration not given here. Aoe(9ξ) = N[C@@H](CCCCCC(=O)C1CO1)C(=O)O; dPip = O=C(O)[C@H]1CCCCN1

Experiments:
[1] = test system: Fra-1 mRNA in HCT116 cells; experiment: Fra-1 mRNA levels by Q-PCR in HCT116 cells after HDAC inhibitor treatment; assay type: cell-based; conditions: for mrna remaining at 0.1 µM: Homo sapiens, HCT-116, 100 nM drug, read-out: % Fra1 mRNA remaining; for % Fra1 mRNA remaining: 100 nM drug
Protocol: (§1) H1299 cells and HCT116 cells (ATCC, Manassas, Va.) are cultured and exposed to Tpx A or Compound A and levels of Fra-1 message assayed. In these experiments, H1299 cells are cultured as described in Example 1. HCT116 cells are cultured in RPMI 1640 medium containing 10% fetal calf serum at 37° C. and 5% CO2. 100 nM trapoxin, 100 nM Compound A or 100 nM DMSO are added to the cells at 60% confluence and grown up for either 6 or 24 hours. Using methodologies as described in Example 1 above, the RNA from cultures treated with Tpx A, Compound A or DMSO as a control is obtained and analysed by Q-PCR for Fra-1 levels; in this case, 8.7 ng total RNA in 12 μl DEPC-H2O are prepared in MicroAmp optical 96 well reaction plates (Applied Biosystems) together with 13 μl TaqMan PCR reagent mix as provided in Table 1.

[2] = test system: Fra-1 mRNA in H1299 cells; experiment: Fra-1 mRNA levels by Q-PCR in H1299 cells after HDAC inhibitor treatment; assay type: cell-based, Human; conditions: for mrna remaining at 0.1 µM: Homo sapiens, NCI-H1299, read-out: % Fra1 mRNA remaining; for mrna remaining at 0.1 µM / % Fra1 mRNA remaining: H1299 cells
Protocol: Human H1299 non-small cell lung carcinoma cells (ATCC, Manassas, Va.) (ATCC #CRL-5803) are cultured in RPMI 1640 medium (Life Technologies, Gaithersburg, Md.) containing 10% fetal bovine serum (FBS, Life Technologies) plus 50 μg/ml Gentamycin (Life Technologies) in a humidified incubator with a 5% CO2 atmosphere at 37° C. Prior to Tpx A treatment, H1299 cells are plated at a density of 2×10^5 cells/well in 6 well plates (Costar, Corning, N.Y.) and grown up for 24 h. Tpx A (1 mM stock solution in DMSO) is added to the cells at concentrations from 1 to 1000 nM and cells are incubated for either 24 or 48 hours at 37° C.
(§2) Total RNA from Tpx A treated as well as untreated H1299 and A549 cells is prepared using the RNeasy Mini kit (Qiagen, Hilden, Germany) according to the manufacturers instructions. The RNA is recovered in 50 μl DEPC-treated H2O (RNase free) and the RNA concentration is determined by measuring the OD260 in a SpectraMax photometer (Molecular Devices, Sunnyvale, Calif.).
(§3) Sequences for primers (BIG, Freiburg, Germany) and TaqMan probes for Q-PCR containing 5′ FAM fluorescent reporter and 3′ TAMRA quencher dyes (Eurogentec, Seraing, Belgium) are selected using the Primer Express Software (Applied Biosystems, Foster City, Calif.) at default settings; Primer TM Requirements: Min Tm: 58° C., Max Tm:60° C., Optimal Tm: 59° C., Maximal Tm difference: 2° C. Primer GC Content Requirements: Min %GC 30, Max %GC 80, 3′ clamp of 0 residues. Primer Length Requirements: Min length: 9, Max length: 40, optimal length: 20. Amplicon Requirements: Min Tm: 0° C., Max Tm: 85° C., Min length: 50, Max length: 150. TaqMan Probe Criteria: TaqMan probe Tm must be 10° C. greater than PCR primer Tm.
(§4) Q-PCR is performed using the TaqMan PCR Core reagent kit (Applied Biosystems Foster City, Calif.) in a ABI Prism 7700 sequence detector (Applied Biosystems) according to the manufacturers instructions. 50 ng total RNA in 12 μl DEPC-H2O are prepared in MicroAmp optical 96 well reaction plates (Applied Biosystems) together with 13 μl TaqMan PCR reagent mix as provided in Table 1.
(§5) Settings for reverse transcription of the target RNA and detection by Q-PCR are 50° C. for 2 min., 95° C. for 10 min. followed by 50 cycles of 95° C. for 15 sec and 60° C. for 1 min. Relative measurement of the amplified product is performed using the comparative CT method as described in the manufacturer's manual (Applied Biosystems, ABI Prism 7700 sequence detection system, User Bulletin #2).
as §1

[3] = test system: histone deacetylase activity purified from H1299 cells; experiment: Histone deacetylase activity, release of tritium labeled acetyl groups from acetylated Histone H4 peptide; assay type: biochemical, Human; conditions: HDAC activity purified from H1299 cells, 2 hours at 37° C.
Protocol: Using conventional methodologies, the actual enzyme activity of […] was examined in the presence of Trapoxin A, Compound A or Compound B. Briefly, 30,000 cpms of a tritium labeled acetylated Histone H4 peptide is incubated with histone deacetylase activity purified from H1299 cells by ion exchange chromatography in HDAC assay buffer (10 mM Tris-Cl, pH 8.0, 10 mM NaCl, 10% glycerol) in the presence or absence of drug. The mixture is allowed to sit for 2 hours at 37° C. and radio-labeled acetyl groups released by histone deacetylase activity extracted into ethyl acetate and counted on a scintillation counter. The IC50 represents the concentration of drug that inhibits 50% of the histone deacetylase activity obtained in the absence of drug.

[4] = test system: Fra-1 mRNA in A549 cells; experiment: Fra-1 mRNA levels by Q-PCR in A549 cells after HDAC inhibitor treatment; assay type: cell-based, Human; conditions: for mrna remaining at 0.1 µM: Homo sapiens, 100 nM, n = 4 (Example 3), read-out: % Fra1 mRNA remaining; for mrna remaining at 0.1 µM / % Fra1 mRNA remaining: A549 cells
Protocol: Human A549 non-small lung carcinoma cells (ATCC CCL-185, Manassas, Va.) are cultured in DMEM medium (Life Technologies, Gaithersburg, Md.) containing 4500 mg/l glucose, 10% fetal bovine serum (FBS, Life Technologies) plus 50 μg/ml Gentamycin (Life Technologies) in a humidified incubator with a 5% CO2 atmosphere at 37° C. Prior to Tpx A treatment, A549 cells are plated at a density of 2×10^5 cells/well in 6 well plates (Costar, Corning, N.Y.) and grown up for 24 h. Tpx A (1 mM stock solution in DMSO) is added to the cells at concentrations from 1 to 1000 nM and cells are incubated for either 24 or 48 hours h at 37° C.
as §2, §3, §4, §5
Human A549 non-small cell lung carcinoma cells (ATCC, Manassas, Va.) (ATCC #CCL-185) are cultured in DMEM medium (Life Technologies, Gaithersburg, Md.) containing 10% fetal bovine serum (FBS, Life Technologies) plus 50 μg/ml Gentamycin (Life Technologies) in a humidified incubator with a 5% CO2 atmosphere at 37° C. Prior to Compound B treatment, A549 cells are plated at a density of 5×10^4 cells/well in 24 well plates (Costar, Corning, N.Y.) and grown up for 24 h. Compound B (10 mM stock solution in DMSO) is diluted to a final concentration of 100 nM in tissue culture medium and added to the cells. As control an equivalent amount of DMSO is added to control cultures without Compound B. The cells are incubated at 37° C. for either 16, 24 or 48 hrs. All cell cultures are set up in duplicate. Total RNA from the compound—treated as well as untreated A549 cells is prepared using the RNeasy Mini kit (Qiagen, Hilden, Germany) according to the manufacturer's instructions. The RNA is recovered in 50 μl DEPC-treated H2O (RNase free) and the RNA concentration is determined by measuring the OD260 in a SpectraMax photometer (Molecular Devices, Sunnyvale, Calif.). The amount of RNA is adjusted to 5 ng/microliter.
DNA sequence of the Fra-1 primers and probes are as described above. Settings for reverse transcription of the target RNA and detection by Q-PCR are 50° C. for 2 min., 95° C. for 10 min. followed by 50 cycles of 95° C. for 15 sec and 60° C. for 1 min. […]

[5] = test system: Fra-1 mRNA in A549 cells; experiment: Fra-1 mRNA expression by conventional microarray technology in A549 cells; assay type: cell-based, Human; conditions: in the presence of TPX A, data not shown
[6] = test system: Fra-1 mRNA in H1299 cells; experiment: Fra-1 mRNA expression by conventional microarray technology in H1299 cells; assay type: cell-based, Human; conditions: in the presence of TPX A, data not shown
[7] = molecular target: histone deacetylase activity purified from H1299 cells by ion exchange chromatography (human); experiment: cell-based or functional assay

Compound: O=C(/C=C/c1ccc(CNCCc2c[nH]c3ccccc23)cc1)NO [Compound A, N-Hydroxy-3-[4-[[[2-(1H-indol-3-yl)-ethyl]-amino]methyl]phenyl]-2E-2-propenamide]
mrna remaining at 0.1 µM ([1]; 6 hr): 32.6%
mrna remaining at 0.1 µM ([1]; 24 hr): 15.9%
mrna remaining at 0.1 µM ([2]; 100 nM drug, 6 hr (Example 2)): 7.14%
mrna remaining at 0.1 µM ([2]; 100 nM drug, 24 hr (Example 2)): 2.07%
IC50 [3]: 0.063 ± 0.01 µM

Compound: O=C(/C=C/c1ccc(CN(CCO)CCc2c[nH]c3ccccc23)cc1)NO [Compound B, N-Hydroxy-3-[4-[[(2-hydroxyethyl)[2-(1H-indol-3-yl)-ethyl]-amino]methyl]phenyl]-2E-2-propenamide]
mrna remaining at 0.1 µM ([4]; 16 hr): 15%
mrna remaining at 0.1 µM ([4]; 24 hr): 14.1%
mrna remaining at 0.1 µM ([4]; 48 hr): 52.8%
IC50 [3]: 0.032 ± 0.017 µM

Compound: O=C(CCCCC[C@@H]1NC(=O)[C@H]2CCCCN2C(=O)[C@H](Cc2ccccc2)NC(=O)[C@H](Cc2ccccc2)NC1=O)C1CO1 (some centres unmarked) [TPX A, trapoxin A] (cyclo(FF[dPip][Aoe(9ξ)]))
% Fra1 mRNA remaining ([1]; 6 hr): 14.25%
% Fra1 mRNA remaining ([1]; 24 hr): 13.68%
repression of Fra-1 mRNA expression (microarray) [5]: > 200 fold
IC50 ([4]; A549 cell line, Tpx A treatment, Q-PCR, read-out: IC50 for Fra-1 mRNA down regulation): 10 to 50 nM
% Fra1 mRNA remaining ([4]; 24 hours, 1 nM TPX A): 95%
% Fra1 mRNA remaining ([4]; 24 hours, 10 nM TPX A): 64%
% Fra1 mRNA remaining ([4]; 24 hours, 50 nM TPX A): 26%
% Fra1 mRNA remaining ([4]; 24 hours, 100 nM TPX A): 16%
% Fra1 mRNA remaining ([4]; 24 hours, 250 nM TPX A): 6%
% Fra1 mRNA remaining ([4]; 24 hours, 500 nM TPX A): 4%
% Fra1 mRNA remaining ([4]; 24 hours, 1000 nM TPX A): 3%
% Fra1 mRNA remaining ([4]; 48 hours, 1 nM TPX A): 93%
% Fra1 mRNA remaining ([4]; 48 hours, 10 nM TPX A): 84%
% Fra1 mRNA remaining ([4]; 48 hours, 50 nM TPX A): 38%
% Fra1 mRNA remaining ([4]; 48 hours, 100 nM TPX A): 32%
% Fra1 mRNA remaining ([4]; 48 hours, 250 nM TPX A): 14%
% Fra1 mRNA remaining ([4]; 48 hours, 500 nM TPX A): 7%
% Fra1 mRNA remaining ([4]; 48 hours, 1000 nM TPX A): 6%
IC50 ([2]; H1299 cell line, Tpx A treatment, Q-PCR, read-out: IC50 for Fra-1 mRNA down regulation): 1 to 10 nM
% Fra1 mRNA remaining ([2]; 100 nM drug, 6 hr (Example 2)): 5.81%
% Fra1 mRNA remaining ([2]; 100 nM drug, 24 hr (Example 2)): 3.11%
% Fra1 mRNA remaining ([2]; 24 hours, 1 nM TPX A): 98%
% Fra1 mRNA remaining ([2]; 24 hours, 10 nM TPX A): 2%
% Fra1 mRNA remaining ([2]; 24 hours, 50 nM TPX A): 1%
% Fra1 mRNA remaining ([2]; 24 hours, 100 nM TPX A): 1%
% Fra1 mRNA remaining ([2]; 24 hours, 250 nM TPX A): 1%
% Fra1 mRNA remaining ([2]; 24 hours, 500 nM TPX A): 1%
% Fra1 mRNA remaining ([2]; 24 hours, 1000 nM TPX A): 1%
% Fra1 mRNA remaining ([2]; 48 hours, 1 nM TPX A): 94%
% Fra1 mRNA remaining ([2]; 48 hours, 10 nM TPX A): 7%
% Fra1 mRNA remaining ([2]; 48 hours, 50 nM TPX A): 1%
% Fra1 mRNA remaining ([2]; 48 hours, 100 nM TPX A): 1%
% Fra1 mRNA remaining ([2]; 48 hours, 250 nM TPX A): 1%
% Fra1 mRNA remaining ([2]; 48 hours, 500 nM TPX A): 1%
% Fra1 mRNA remaining ([2]; 48 hours, 1000 nM TPX A): 1%
IC50 [3]: 2.2 ± 0.96 µM
repression of Fra-1 mRNA expression (microarray) [6]: > 200 fold

IC50/µM on histone deacetylase (release of tritium-labelled acetyl groups from an acetylated Histone H4 peptide) [7]: 2.2 µM
Compound: trapoxin A (peptide)
